Assay results from article PMC6956259, “Mechanistic Evaluation of Enhanced Curcumin Delivery through Human Skin In Vitro from Optimised Nanoemulsion Formulations Fabricated with Different Penetration Enhancers” (Pharmaceutics, 2019).
Like-named read-outs stand apart in the source and are kept apart here.

Key:
[1] = cited from earlier work
[2] = Stability of curcumin in the receptor medium; assay type: physicochemical; details: 6% Volpo in water, 35 °C, at 0, 1, 6, 12 and 24 h
Method: Standard solutions of curcumin (5, 10, 12.5 and 25 µg/mL) were prepared in a 6% Volpo aqueous solution and stored at 35 ± 0.5 °C for 24 h. Samples removed at 1, 6, 12 and 24 h were assayed for drug content by HPLC.

| SMILES | log P [1] | Amount of curcumin remaining [2] [%] | log P ([1]; no reference given) |
| --- | --- | --- | --- |
| CCCCOC(=O)c1ccc(O)cc1 [butyl paraben, reference compound] | 3.6 | – | – |
| COc1cc(/C=C/C(=O)CC(=O)/C=C/c2ccc(O)c(OC)c2)ccc1O [curcumin, Curcumin] | – | > 99 | 3.6 |
